Test results: patent US20100105729A1, “ARYL-SUBSTITUTED HETEROCYCLIC PDE4 INHIBITORS AS ANTI-INFLAMMATORY AGENTS” (KALYPSYS, INC., priority 2006, published 2010)

Molecular target: T1, PDE4B (Homo sapiens, UniProt Q07343)
T1 construct: hexa-histidine (His6) (N); made in house
Assay: PDE4 IMAP Assay
Format: biochemical
Details: catalytic domain of PDE4B, fluorescence polarization
Source text: Compounds may be screened for functional potency in in vitro biochemical assays for their ability to inhibit the activity of phosphodiesterase (PDE) enzymes. A commercial PDE assay, Molecular Device's PDE IMAP assay, was modified and utilized to measure the inhibitory activity of compounds on PDE isoforms. The IMAP technology is based on the high affinity binding of phosphate by immobilized metal (MIII) coordination complexes on nanoparticles. This IMAP “binding reagent” complexes with phosphate groups on the nucleotide monophosphates generated in the reaction. Such binding causes a change in the rate of the molecular motion of the nucleotide, and results in an increase in the fluorescence polarization value observed for the fluorescent label attached to the substrate. PDE inhibitors prevent the generation of nucleotide monophosphates and the subsequent increase in polarization value observed for the fluorescent label attached to the substrate. The catalytic domain of PDE4B was fused to an amino-terminus hex-histadine affinity tag and purified. PDE4B enzyme was incubated with compounds for 10 minutes. Fluorescently labeled cyclic AMP substrates were then added to the PDE enzyme mix and incubated for 2 hours at room temperature. IMAP binding reagent was then added to the enzyme mix, incubated for 10-30 minutes and fluorescent polarization of the fluorescently labeled substrate was read either with the Perkin Elmer Viewlux or Molecular Devices Acquest or Analyst. Roflumilast and Rolipram are the positive controls used in the assay.

T1 sequence (Q07343 330-659 limits assumed, species assumed): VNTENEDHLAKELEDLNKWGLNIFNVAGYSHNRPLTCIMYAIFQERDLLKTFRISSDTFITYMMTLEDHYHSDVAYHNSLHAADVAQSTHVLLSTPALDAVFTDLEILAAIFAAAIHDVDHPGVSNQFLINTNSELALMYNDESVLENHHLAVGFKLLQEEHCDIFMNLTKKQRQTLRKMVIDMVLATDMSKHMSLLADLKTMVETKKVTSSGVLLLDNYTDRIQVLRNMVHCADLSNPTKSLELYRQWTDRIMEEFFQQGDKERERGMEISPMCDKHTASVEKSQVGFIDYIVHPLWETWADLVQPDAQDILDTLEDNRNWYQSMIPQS

Row | Compound | inhibition at 10 µM [%]
1 | COc1ccc(OC)c(C2CC(c3ccc(OC)c(OC)c3)=NN2C(=O)CCCC(=O)O)c1 (centres unmarked) [Example 64, 5-(5-(2,5-dimethoxyphenyl)-3-(3,4-dimethoxyphenyl)-4,5-dihydro-1H-pyrazol-1-yl)-5-oxopentanoic acid] | < 50
2 | COc1ccc(C2=NN(C(=O)CCCC(=O)O)C(c3ccc(F)cc3)C2)cc1OC (centres unmarked) [Example 65, 5-(3-(3,4-dimethoxyphenyl)-5-(4-fluorophenyl)-4,5-dihydro-1H-pyrazol-1-yl)-5-oxopentanoic acid] | < 50
3 | COc1ccc(C2CC(c3ccc(OC)c(OC)c3)=NN2C(=O)CCCC(=O)O)cc1 (centres unmarked) [Example 66, 5-(3-(3,4-dimethoxyphenyl)-5-(4-methoxyphenyl)-4,5-dihydro-1H-pyrazol-1-yl)-5-oxopentanoic acid] | < 50
4 | COc1ccc(C2=NN(C(=O)CCCC(=O)O)C(c3ccccc3Cl)C2)cc1OC (centres unmarked) [Example 67, 5-(5-(2-chlorophenyl)-3-(3,4-dimethoxyphenyl)-4,5-dihydro-1H-pyrazol-1-yl)-5-oxopentanoic acid] | < 50
5 | COc1ccc(C2=NN(C(=O)CCC(=O)O)C(c3ccc(OC)c(OC)c3)C2)cc1OC (centres unmarked) [Example 68, 4-(3,5-bis(3,4-dimethoxyphenyl)-4,5-dihydro-1H-pyrazol-1-yl)-4-oxobutanoic acid] | < 50
6 | COc1ccc(C2=NN(C(=O)CCC(=O)O)C(c3cccc(OC)c3OC)C2)cc1OC (centres unmarked) [Example 69, 4-(5-(2,3-dimethoxyphenyl)-3-(3,4-dimethoxyphenyl)-4,5-dihydro-1H-pyrazol-1-yl)-4-oxobutanoic acid] | < 50
7 | COc1ccc(C2=NN(C(=O)CCC(=O)O)C(c3ccc(Cl)cc3)C2)cc1OC (centres unmarked) [Example 70, 4-(5-(4-chlorophenyl)-3-(3,4-dimethoxyphenyl)-4,5-dihydro-1H-pyrazol-1-yl)-4-oxobutanoic acid] | < 50
8 | COc1ccc(C2=NN(C(=O)CCC(=O)O)C(c3ccc(C)cc3)C2)cc1OC (centres unmarked) [Example 71, 4-(3-(3,4-dimethoxyphenyl)-5-p-tolyl-4,5-dihydro-1H-pyrazol-1-yl)-4-oxobutanoic acid] | < 50
9 | COc1ccc(C2=NN(C(=O)CCC(=O)O)C(c3ccc(F)cc3)C2)cc1OC (centres unmarked) [Example 72, 4-(3-(3,4-dimethoxyphenyl)-5-(4-fluorophenyl)-4,5-dihydro-1H-pyrazol-1-yl)-4-oxobutanoic acid] | < 50
10 | COc1ccc(C2=NN(C(C)=O)C(c3cn(-c4ccccc4)nc3-c3ccccc3)C2)cc1OC (centres unmarked) [Example 73, 1-(3-(3,4-dimethoxyphenyl)-5-(1,3-diphenyl-1H-pyrazol-4-yl)-4,5-dihydro-1H-pyrazol-1-yl)ethanone] | < 50
11 | COc1ccc(C2=NN(C(C)=O)C(c3cc4cc(C)ccc4nc3Cl)C2)cc1OC (centres unmarked) [Example 74, 1-(5-(2-chloro-6-methylquinolin-3-yl)-3-(3,4-dimethoxyphenyl)-4,5-dihydro-1H-pyrazol-1-yl)ethanone] | < 50
12 | COc1ccc(C2=NN(C(C)=O)C(c3cc4ccc(C)cc4nc3Cl)C2)cc1OC (centres unmarked) [Example 75, 1-(5-(2-chloro-7-methylquinolin-3-yl)-3-(3,4-dimethoxyphenyl)-4,5-dihydro-1H-pyrazol-1-yl)ethanone] | < 50
13 | COc1ccc(C2=NN(C(C)=O)C(c3cc4cccc(C)c4nc3Cl)C2)cc1OC (centres unmarked) [Example 76, 1-(5-(2-chloro-8-methylquinolin-3-yl)-3-(3,4-dimethoxyphenyl)-4,5-dihydro-1H-pyrazol-1-yl)ethanone] | < 50
14 | COc1ccc(C2=NN(C(=O)c3cc(OC)c(OC)c(OC)c3)C(c3ccc(OC)c(OC)c3)C2)cc1OC (centres unmarked) [Example 78, (3,5-bis(3,4-dimethoxyphenyl)-4,5-dihydro-1H-pyrazol-1-yl)(3,4,5-trimethoxyphenyl)methanone] | < 50
